Some results are limits rather than exact numbers.

Usually inhibition stands for the relative decrease from the control value, in per cent.

One assay has as its system MDCK cells. Nature of the assay: HGF-induced epithelial-mesenchymal transition / migration of MDCK cells on transwell filters (crystal violet densitometry). The format is cell-based. The settings on record: Canis lupus familiaris, MDCK; test compound 10 μM, then HGF, 24 hours; percentage value like the untreated controls (unstimulated cells = maximal effect, HGF treated cells without compound = nil effect). The method, then:
MDCK cells were seeded at confluency into the wells of a transwell filter in DMEM with 10% fetal bovine serum. Cells were cultured for 24 hours. Test compounds, dissolved in DMSO, were added to each test well to a 10 μM final concentration, and then hepatocyte growth factor (HGF) was then added. The MDCK cells were cultured for 24 hours. Concurrently, controls treated with and without HGF and with no test compounds were also prepared.
After post-HGF addition culturing, transwell filters were prepared by repeated washing using ice cold PBS. The cells were then fixed with paraformaldehyde (3.7%) on ice for 15 minutes to the filters. After fixation, the transwell filters were washed repeatedly with PBS followed by staining with crystal violet for 15 minutes. The transwell filters were washed again with distilled water.
The upper surface of the transwell filters were swabbed using a cotton-tipped probe. The filters were photographed using a gel documentation system. Densitometry measurements were made on the test samples and compared with control samples.
As for `Oc1cccc2ccc(/C=C/c3ccc4c(c3)OCO4)nc12` [Compound B-30], the inhibition at 10 µM was found to be 94.4%.

Turning to `COc1cc(/C=C/c2ccc3cccc(OC)c3n2)cc(Br)c1OC` [Compound B-9], the inhibition at 10 µM was more than 5%.

The molecule `COc1cc(Cl)cc(/C=C/c2ccc3cccc(OC)c3n2)c1OC(C)=O` [Compound B-22] came in with an inhibition at 10 µM of 98.1%.

As to `C=C(C)CSc1nc2sc3c(c2c(=O)[nH]1)CCCC3` [Compound A-14], the inhibition at 10 µM is 100%.

Molecule `COc1cccc(/C=C/c2ccc3cccc(O)c3n2)c1` [Compound B-34] displayed an inhibition at 10 µM of 51.8%.

`C=CCc1ccccc1OCC(=O)N/N=C/c1ccc(Cl)cc1` [Compound 2] came in with an inhibition at 10 µM of 67.3%.

For the molecule `O=c1[nH]c(SCc2ccccc2)nc2sc3c(c12)CCc1ccccc1-3` [Compound A-5], the inhibition at 10 µM is 77.3%.

`Cc1nc(CSc2nc3[nH]ncc3c(=O)n2-c2ccccc2)cs1` [Compound A-8] came in with an inhibition at 10 µM of 49.6%.

`O=C(CSc1nc2sc3c(c2c(=O)n1Cc1ccccc1)CCCC3)N1CCCC1` [Compound A-9] showed an inhibition at 10 µM of 50%.

Consider `Cc1noc(C)c1CSc1nc2[nH]ncc2c(=O)n1-c1ccccc1` [Compound A-10], for which the inhibition at 10 µM stood at 63.1%.

Regarding `C=CCc1ccccc1OCC(=O)N/N=C/c1cccc(CC=C)c1O` [Compound 10], at 10 µM the inhibition was 44.8%.

As for `COc1cc(/C=C/c2ccc3cccc(OC)c3n2)ccc1OC(C)=O` [Compound B-7], the inhibition at 10 µM is more than 5%.

In the case of `COc1c(OC(C)=O)ccc(/C=C/c2ccc3cccc(OC)c3n2)c1[N+](=O)[O-]` [Compound B-14], testing at 10 µM gave an inhibition of 61.1%.

The molecule `CCOC(=O)/C=C/CSc1nc2sc3c(c2c(=O)[nH]1)CCCC3` [Compound A-15] returned an inhibition at 10 µM of 71.3%.

`CCOc1ccccc1OCC(=O)N/N=C/c1ccc(O)c(O)c1` [Compound 15] had an inhibition at 10 µM of 72.8%.

Turning to `O=c1[nH]c(NCc2ccccc2)nc2sc3c(c12)CCCC3` [Compound A-2], the inhibition at 10 µM is 92.2%.

`COc1cc(/C=C/c2ccc3cccc(O)c3n2)ccc1OCc1ccccc1` [Compound B-32] showed an inhibition at 10 µM of 91.8%.

`O=C1c2cccc3cccc(c23)C(=O)N1CCc1nc2sc3c(c2c(=O)[nH]1)CCCC3` [Compound A-3] registered an inhibition at 10 µM of 73.4%.

In turn, `N#Cc1ccccc1OCC(=O)N/N=C/c1cccc(Br)c1` [Compound 12] came in with an inhibition at 10 µM of 67.7%.

Molecule `COc1cc(/C=C/c2ccc3cccc(O)c3n2)ccc1O` [Compound B-3] returned an inhibition at 10 µM of more than 5%.

`CCOc1ccc(/C=C/c2ccc3cccc(OC)c3n2)cc1OC` [Compound B-5] came in with an inhibition at 10 µM of more than 5%.

Staying with this assay, now noted: test compound 10 μM, then HGF, 24 hours; percentage value like the untreated controls (unstimulated cells = maximal effect, HGF treated cells without compound = nil effect).
For the molecule `Cc1noc(C)c1CSc1nc2sc3c(c2c(=O)n1-c1ccccc1)CCC3` [Compound A-6], the “Assay Value” came out at 55.1%.

Turning to `CC1CCc2c(sc3nc(Cc4ccccc4)[nH]c(=O)c23)C1` (stereo not shown) [Compound A-18], the “Assay Value” is reported as less than 5%.

As for `O=C(CSc1nc2sc3c(c2c(=O)n1Cc1ccccc1)CCCC3)N1CCCC1` [Compound A-21], the “Assay Value” is less than 5%.

Consider `COc1cccc(/C=N/NC(=O)COc2cc(C)ccc2C(C)C)c1` [Compound 24], for which the “Assay Value” was less than 5%.

As for `O=C(CSc1nc2sc3c(c2c(=O)n1-c1ccccc1)CCCC3)c1cccs1` [Compound A-17], the “Assay Value” is less than 5%.

Regarding `CC1CCCCN1C(=O)CSc1nc2sc3c(c2c(=O)n1-c1ccccc1)CCC3` (stereo not shown) [Compound A-22], the “Assay Value” was less than 5%.

On to `Cc1ccc(OCC(=O)N/N=C/c2ccc(C(=O)O)cc2)c(C)c1` [Compound 22], for which the “Assay Value” was less than 5%.

In the case of `CC1CCN(C(=O)CSc2nc3sc4c(c3c(=O)[nH]2)CCCC4)CC1` [Compound A-25], the “Assay Value” was less than 5%.

As for `O=C(COc1cccc(Br)c1)N/N=C/c1ccc(Cl)cc1` [Compound 35], the “Assay Value” was less than 5%.

In the case of `Oc1cccc2ccc(/C=C/c3ccc(OCc4ccccc4)cc3)nc12` [Compound B-19], the “Assay Value” is 91.0%.

For the molecule `Cc1ccccc1OCC(=O)N/N=C/c1ccc(F)cc1` [Compound 26], the “Assay Value” is recorded as less than 5%.

As for `O=C(COc1ccccc1Br)N/N=C/c1cccc(Br)c1` [Compound 28], the “Assay Value” was less than 5%.

Turning to `Cc1cccc(OCC(=O)N/N=C/c2cccc(I)c2)c1` [Compound 16], the “Assay Value” is on record as less than 5%.

Source of the values: patent US8481553B2, “Antimetastatic compounds” (Brigham Young University, priority 2010, dated 2013).
